Measured values: patent publication US8148367B2 (Takeda Pharmaceutical Company Limited, priority 2008, dated 2012)
pIC50: −log10 of the molar value.

Target: T1, Recombinant human renin (Homo sapiens, UniProt P00797)
T1 construct: isolate the active form (residues 67-406); made in house; host or cells: FreeStyle 293-F cells, transient expression of pcDNA3.1(+)/hREN
T1 sequence (P00797 67-406): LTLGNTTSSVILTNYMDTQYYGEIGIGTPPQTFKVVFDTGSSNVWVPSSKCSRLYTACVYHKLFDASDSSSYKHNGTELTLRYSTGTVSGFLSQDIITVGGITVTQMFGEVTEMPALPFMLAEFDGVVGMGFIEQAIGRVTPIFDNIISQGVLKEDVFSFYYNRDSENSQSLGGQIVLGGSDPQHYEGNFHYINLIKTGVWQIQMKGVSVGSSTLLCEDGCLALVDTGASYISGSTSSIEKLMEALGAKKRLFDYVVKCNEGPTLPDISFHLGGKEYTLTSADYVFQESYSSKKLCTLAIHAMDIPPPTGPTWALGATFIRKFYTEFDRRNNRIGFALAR
Assay: In vitro enzymatic activity assay of renin inhibitors (fluorescence, QXL520/HiLyteFluo488 peptide substrate)
Type: biochemical
Settings: recombinant human renin 3 nM, 1 μM substrate, pre-incubated 10 minutes at 37° C., incubation one hour, pH 7.4, 5% DMSO; read-out: IC50 of Exemplified Compounds Against Renin

SMILES | pIC50
Cc1ccccc1-n1c(-c2ccccc2)c(C(=O)N2CCNCC2)n(CCNS(=O)(=O)c2ccccc2F)c1=O [Example 203, 2-Fluoro-N-(2-(2-oxo-4-phenyl-5-(piperazine-1-carbonyl)-3-o-tolyl-2,3-dihydro-1H-imidazol-1-yl)ethyl)benzenesulfonamide] | 6.00 to 6.30
O=C(c1[nH]c(=O)n(-c2ccccc2)c1-c1ccccc1Cl)N1CCNCC1 [Example 26, 5-(2-Chlorophenyl)-1-phenyl-4-(piperazine-1-carbonyl)-1H-imidazol-2(3H)-one] | < 6.00
Cn1c(C(=O)N2CCNCC2)c(-c2ccccc2)n(-c2ccccc2)c1=O [Example 54, 1-Methyl-3,4-diphenyl-5-(piperazine-1-carbonyl)-1H-imidazol-2(3H)-one] | < 6.00
COCCOc1cccc(-n2c(-c3ccccc3)c(C(=O)N3CCNCC3)[nH]c2=O)c1 [Example 34, 1-(3-(2-Methoxyethoxy)phenyl)-5-phenyl-4-(piperazine-1-carbonyl)-1H-imidazol-2(3H)-one] | < 6.00
O=C(c1c(-c2ccccc2)n([C@H]2CCCC[C@H]2O)c(=O)n1Cc1cccc(Oc2ccccc2)c1)N1CCNCC1 [Example 152, 1-((1S,2R)-2-Hydroxycyclohexyl)-3-(3-phenoxybenzyl)-5-phenyl-4-(piperazine-1-carbonyl)-1H-imidazol-2(3H)-one] | 6.00 to 6.30
COCCOc1cccc(Cn2c(C(=O)N3CCNCC3)c(-c3ccccc3)n(-c3ccccc3C)c2=O)c1 [Example 27, 1-(3-(2-methoxyethoxy)benzyl)-4-phenyl-5-(piperazine-1-carbonyl)-3-o-tolyl-1H-imidazol-2(3H)-one] | 6.30 to 7.00
COc1ccc(S(=O)(=O)NCCCn2c(C(=O)N3CCNCC3)c(-c3ccccc3)n(-c3ccccc3C)c2=O)cc1 [Example 222, 4-Methoxy-N-(3-(2-oxo-4-phenyl-5-(piperazine-1-carbonyl)-3-o-tolyl-2,3-dihydro-1H-imidazol-1-yl)propyl)benzenesulfonamide] | 6.30 to 7.00
CC(C)CN(C)C(=O)c1cccc(Cn2c(C(=O)N3CCNCC3)c(-c3ccccc3)n(-c3cccc(N4CCOCC4)c3)c2=O)c1 [Example 78, N-isobutyl-N-methyl-3-((3-(3-morpholinophenyl)-2-oxo-4-phenyl-5-(piperazine-1-carbonyl)-2,3-dihydro-1H-imidazol-1-yl)methyl)benzamide] | < 6.00
CC(C)CC(=O)NCCCn1c(C(=O)N2CCNCC2)c(-c2ccccc2)n(-c2cccc(N3CCOCC3)c2)c1=O [Example 176, 3-Methyl-N-(3-(3-(3-morpholinophenyl)-2-oxo-4-phenyl-5-(piperazine-1-carbonyl)-2,3-dihydro-1H-imidazol-1-yl)propyl)butanamide] | < 6.00
O=C(c1c(-c2ccccc2)n(-c2ccccc2)c(=O)n1Cc1nnc(C2CC2)s1)N1CCNCC1 [Example 48, 1-((5-Cyclopropyl-1,3,4-thiadiazol-2-yl)methyl)-3,4-diphenyl-5-(piperazine-1-carbonyl)-1H-imidazol-2(3H)-one] | < 6.00
C[C@H]1CN(C(=O)c2[nH]c(=O)n(C3CCCCC3)c2-c2ccccc2)CCN1 [Example 39, (S)-1-Cyclohexyl-4-(3-methylpiperazine-1-carbonyl)-5-phenyl-1H-imidazol-2(3H)-one] | < 6.00
O=C(c1c(-c2ccccc2)n(C2CCCC[C@@H]2O)c(=O)n1CCCNS(=O)(=O)c1ccccc1)N1CCNCC1 (stereo partly drawn) [Example 171, N-(3-(3-((2S)-2-Hydroxycyclohexyl)-2-oxo-4-phenyl-5-(piperazine-1-carbonyl)-2,3-dihydro-1H-imidazol-1-yl)propyl)benzenesulfonamide] | < 6.00
COc1ccccc1NC(=O)NCCCn1c(C(=O)N2CCNCC2)c(-c2ccccc2)n(-c2ccccc2C)c1=O [Example 225, 1-(2-Methoxyphenyl)-3-(3-(2-oxo-4-phenyl-5-(piperazine-1-carbonyl)-3-o-tolyl-2,3-dihydro-1H-imidazol-1-yl)propyl)urea] | 6.30 to 7.00
Cc1ccccc1-n1c(-c2ccccc2)c(C(=O)N2CCNCC2)n(CCNS(=O)(=O)c2ccc(Cl)cc2)c1=O [Example 207, 4-Chloro-N-(2-(2-oxo-4-phenyl-5-(piperazine-1-carbonyl)-3-o-tolyl-2,3-dihydro-1H-imidazol-1-yl)ethyl)benzenesulfonamide] | < 6.00
COCCCOc1cccc(-n2c(-c3ccccc3)c(C(=O)N3CCNCC3)n(CCNC(=O)CC(C)C)c2=O)c1 [Example 184, N-(2-(3-(3-(3-Methoxypropoxy)phenyl)-2-oxo-4-phenyl-5-(piperazine-1-carbonyl)-2,3-dihydro-1H-imidazol-1-yl)ethyl)-3-methylbutanamide] | < 6.00
COCCCOc1cccc(-n2c(-c3ccccc3)c(C(=O)N3CCNCC3)n(CCNC(=O)c3ccccc3)c2=O)c1 [Example 182, N-(2-(3-(3-(3-Methoxypropoxy)phenyl)-2-oxo-4-phenyl-5-(piperazine-1-carbonyl)-2,3-dihydro-1H-imidazol-1-yl)ethyl)benzamide] | 6.30 to 7.00
COc1ccccc1-n1c(-c2ccccc2)c(C(=O)N2CCNCC2)n(CCCNC(=O)c2ccccc2)c1=O [Example 159, N-(3-(3-(2-Methoxyphenyl)-2-oxo-4-phenyl-5-(piperazine-1-carbonyl)-2,3-dihydro-1H-imidazol-1-yl)propyl)benzamide] | < 6.00
CC(=O)N1CCCC(n2c(-c3ccccc3)c(C(=O)N3CCNCC3)n(Cc3cccc(Oc4ccccc4)c3)c2=O)C1 (stereo not shown) [Example 99, 1-(1-Acetylpiperidin-3-yl)-3-(3-phenoxybenzyl)-5-phenyl-4-(piperazine-1-carbonyl)-1H-imidazol-2(3H)-one] | < 6.00
COc1ccccc1NC(=O)NCCn1c(C(=O)N2CCNCC2)c(-c2ccccc2)n(-c2ccccc2C)c1=O [Example 214, 1-(2-Methoxyphenyl)-3-(2-(2-oxo-4-phenyl-5-(piperazine-1-carbonyl)-3-o-tolyl-2,3-dihydro-1H-imidazol-1-yl)ethyl)urea] | 6.00 to 6.30
Cc1ccccc1S(=O)(=O)NCCCn1c(C(=O)N2CCNCC2)c(-c2ccccc2)n(-c2cccc(N3CCOCC3)c2)c1=O [Example 197, 2-Methyl-N-(3-(3-(3-morpholinophenyl)-2-oxo-4-phenyl-5-(piperazine-1-carbonyl)-2,3-dihydro-1H-imidazol-1-yl)propyl)benzenesulfonamide] | < 6.00

Results, then the compound that gave them:

pIC50 | SMILES
6.30 to 7.00 | COc1cc(Cn2c(C(=O)N3CCNCC3)c(-c3ccccc3)n(-c3ccccc3)c2=O)cc(OC)c1 [Example 86, 1-(3,5-Dimethoxybenzyl)-3,4-diphenyl-5-(piperazine-1-carbonyl)-1H-imidazol-2(3H)-one]
6.30 to 7.00 | Cc1ccccc1-n1c(-c2ccccc2)c(C(=O)N2CCNCC2)n(CCCNS(=O)(=O)c2ccc(Cl)cc2)c1=O [Example 219, 4-Chloro-N-(3-(2-oxo-4-phenyl-5-(piperazine-1-carbonyl)-3-o-tolyl-2,3-dihydro-1H-imidazol-1-yl)propyl)benzenesulfonamide]
6.30 to 7.00 | COc1ccccc1-n1c(-c2ccccc2)c(C(=O)N2CCNCC2)n(Cc2cccc(Oc3ccccc3)c2)c1=O [Example 146, 1-(2-Methoxyphenyl)-3-(3-phenoxybenzyl)-5-phenyl-4-(piperazine-1-carbonyl)-1H-imidazol-2(3H)-one]
6.30 to 7.00 | CC(c1ccccc1)n1c(C(=O)N2CCNCC2)c(-c2ccccc2)n(C2CCCCC2)c1=O (stereo not shown) [Example 69, 1-Cyclohexyl-5-phenyl-3-(1-phenylethyl)-4-(piperazine-1-carbonyl)-1H-imidazol-2(3H)-one]
6.30 to 7.00 | NC(=O)Cn1c(C(=O)N2CCNC[C@H]2Cc2ccccc2)c(-c2ccccc2)n(C2CCCCC2)c1=O [Example 67, (R)-2-(5-(2-Benzylpiperazine-1-carbonyl)-3-cyclohexyl-2-oxo-4-phenyl-2,3-dihydro-1H-imidazol-1-yl)acetamide]
> 7.00 | Cn1c(C(=O)N2CCNC[C@H]2Cc2ccccc2)c(-c2ccccc2)n(C2CCCCC2)c1=O [Example 65, (R)-4-(2-Benzylpiperazine-1-carbonyl)-1-cyclohexyl-3-methyl-5-phenyl-1H-imidazol-2(3H)-one]
> 7.00 | O=C(c1[nH]c(=O)n(C2CCCCC2)c1-c1ccccc1)N1CCNC[C@H]1Cc1ccccc1 [Example 111, (R)-4-(2-Benzylpiperazine-1-carbonyl)-1-cyclohexyl-5-phenyl-1H-imidazol-2(3H)-one]
> 7.00 | COCCCOc1cccc(-n2c(-c3ccccc3)c(C(=O)N3CCNCC3)n(Cc3cccc(Oc4ccccc4)c3)c2=O)c1 [Example 75, 1-(3-(3-Methoxypropoxy)phenyl)-3-(3-phenoxybenzyl)-5-phenyl-4-(piperazine-1-carbonyl)-1H-imidazol-2(3H)-one]
> 7.00 | O=C(c1c(-c2ccccc2)n(-c2cccc(N3CCOCC3)c2)c(=O)n1Cc1cccc(Oc2ccccc2)c1)N1CCNCC1 [Example 74, 1-(3-Morpholinophenyl)-3-(3-phenoxybenzyl)-5-phenyl-4-(piperazine-1-carbonyl)-1H-imidazol-2(3H)-one]
> 7.00 | C=CCS(=O)(=O)Nc1ccccc1-n1c(-c2ccccc2)c(C(=O)N2CCNC[C@H]2Cc2ccccc2)[nH]c1=O [Example 129, (R)—N-(2-(4-(2-Benzylpiperazine-1-carbonyl)-2-oxo-5-phenyl-2,3-dihydro-1H-imidazol-1-yl)phenyl)prop-2-ene-1-sulfonamide]
> 7.00 | O=C(c1[nH]c(=O)n(CC2(O)CCCCC2)c1-c1ccccc1)N1CCNC[C@H]1Cc1ccccc1 [Example 130, (R)-4-(2-Benzylpiperazine-1-carbonyl)-1-((1-hydroxycyclohexyl)methyl)-5-phenyl-1H-imidazol-2(3H)-one]
